Measurements: patent US12016943B2, “Antiperspirant or deodorant composition” (Firmenich SA, priority 2016, dated 2024)

What was measured:
Format in all cases: physicochemical
[1] = Assessment of coloration of deodorant or antiperspirant formulations containing perfuming ingredients with or without Haloscent D; parameters: key: CO: color; COYE: yellow color; SCOYE: slight yellow color; VCOYE: very yellow color; NC: no color; DECO: discoloration; CL: cloud; VCL: very cloud; WH: white; VCOBR: very brown color; COPI: ping color; settings: perfuming ingredient 0.5 wt %, after 15 days; for Coloration of deodorant spray: DEO SPRAY + Haloscent D 0.5 wt %
Procedure: (§1) Preparation of an Antiperspirant Spray Formulation: Using a high speed stirrer, Silica (Table 1) and Quaternium-18-Hectorite (Table 1) were added to the Isopropyl miristate (Table 1) and Cyclomethicone mixture (Table 1). Once completely swollen, Aluminium Chlorohydrate (Table 1) was added portion wise under stirring until the mixture was homogeneous and without lumps. The aerosol cans were filled with 25% Suspension of the suspension and 75% of Propane/Butane (2.5 bar).
(§2) Preparation of Deodorant Spray Formulation: All the ingredients according to the sequence of the Table 2 were mixed and dissolved. Then the aerosol cans were filled, crimp and add the propellant (Aerosol filling: 40% active solution 60% Propane/Butane 2.5 bar).
(§3) Part A was prepared by sprinkling little by little the Hydroxyethylcellulose (Table 3) in the water (Table 3) whilst rapidly stirring with the turbine. Stirring was continued until the Hydroxyethylcellulose had entirely swollen and giving a limpid gel. Then, Part B (Table 3) was poured little by little in Part A whilst continuing stirring until the whole was homogeneous. Part C was added (Table 3).
(§4) Preparation of a Deodorant Stick Formulation: All the components of Part A were weighted (Table 4) and heated up to 70-75° C. Ceteareth-25 (Table 4) was added once the other Part A ingredients were mixed and heated. Once the Ceteareth-25 was dissolved, the Stearic Acid was added. Part B was prepared by dissolving the Triclosan (Table 4) in 1,2 Propylene Glycol (Table 4). Water which has evaporated was added. Slowly under mixing, Part B was poured into part A. To stock, a plastic bag into the bucket was put in to be sealed after cooling. Moulds was filled at about 70° C.
(§5) Preparation of an Antiperspirant Stick Formulation: All the components of Part A were weighted (Table 5), heated up to 70-75° C. and mixed well. Ingredient of Part B was dispersed in Part A. The mixture was mixed and putted into a tick at 65° C.
(§6) Assessment of Coloration in the Perfuming Ingredients: To set of deodorant or antiperspirant formulations of point a) to e) has been prepared. A perfuming ingredient (0.5 wt %—Table 6, 7 and 8) was added to the first set a and a perfuming ingredient (0.5 wt %—Table 6, 7 and 8) and Haloscent® D (0.5 wt %) were added to the second set. All these formulations were placed at 3° C. and 45° C. for several weeks. All formulations were evaluated in comparison with unperfumed deodorant or antiperspirant formulation. The coloration of each formulation was assessed by a minimum of 2 panelists.

[2] = as above; parameters: key: CO: color; COYE: yelow color; VSCOYE: very slight yellow color; SCOYE: slight yellow color; VCOYE: very yellow color; NC: no color; DECO: decoloration; CL: cloud; VCL: very cloud; WH: white; VCOBR: very brown color; COPI: ping color; settings: perfuming ingredient 0.5 wt %, after 15 days
Procedure: as §1, §2, §3, §4, §5, §6

[3] = as above; parameters: key to Coloration of antiperspirant stick: CO: color; COYE: yelow color; VSCOYE: very slight yellow color; SCOYE: slight yellow color; VCOYE: very yellow color; NC: no color; DECO: decoloration; CL: cloud; VCL: very cloud; WH: white; VCOBR: very brown color; COPI: ping color; settings: perfuming ingredient 0.5 wt %; for Coloration of antiperspirant stick: after 7 days
Procedure: as §1, §2, §3, §4, §5, §6

[4] = AP SPRAY + Haloscent D 0.5 wt %, 3° C.
[5] = AP SPRAY + Haloscent D 0.5 wt %, 45° C.
[6] = DEO ROLL-ON + Haloscent D 0.5 wt %, 3° C.
[7] = DEO ROLL-ON + Haloscent D 0.5 wt %, 45° C.
[8] = DEO STICK + Haloscent D 0.5 wt %, 3° C.
[9] = DEO STICK + Haloscent D 0.5 wt %, 45° C.
[10] = DEO SPRAY + Haloscent D 0.5 wt %, 3° C.
[11] = DEO SPRAY + Haloscent D 0.5 wt %, 45° C.
[12] = AP Stick + Haloscent D 0.5 wt %, 3° C.
[13] = AP Stick + Haloscent D 0.5 wt %, 45° C.

Row | Compound | Coloration of antiperspirant spray ([2]; AP SPRAY, 3° C.) | Coloration of antiperspirant spray ([2]; AP SPRAY, 45° C.) | Coloration of deodorant roll-on [2, 6] | Coloration of deodorant roll-on [2, 7] | Coloration of deodorant roll-on ([2]; DEO ROLL-ON, 3° C.) | Coloration of deodorant roll-on ([2]; DEO ROLL-ON, 45° C.) | Coloration of deodorant spray ([2]; DEO SPRAY, 3° C.) | Coloration of deodorant spray ([2]; DEO SPRAY, 45° C.) | Coloration of deodorant stick [2, 8] | Coloration of deodorant stick [2, 9] | Coloration of deodorant stick ([2]; DEO STICK, 3° C.) | Coloration of deodorant stick ([2]; DEO STICK, 45° C.) | Coloration of deodorant roll-on [1, 7] | Coloration of deodorant spray [2, 10] | Coloration of deodorant spray [2, 11] | Coloration of antiperspirant stick [3, 12] | Coloration of antiperspirant stick [3, 13] | Coloration of antiperspirant stick ([3]; AP Stick, 3° C.) | Coloration of antiperspirant stick ([3]; AP Stick, 45° C.) | also measured
1 | 1-(3,3-dimethyl-1-cyclohexen-1-yl)-4-penten-1-one (A) + 1-(5,5-dimethyl-1-cyclohexen-1-yl)-4-penten-1-one (B) [DYNASCONE] |  |  | WH | SCOYE | VCL | NC |  |  | SCOYE | VCOYE | NC | VCOYE |  |  |  |  |  |  |  | 
2 | CCCCCOC(=O)c1ccccc1O [AMYLE SALICYLATE, PENTYL 2-HYDROXYBENZOATE] |  |  | WH | VCL | VCL | NC |  |  | NC | NC | NC | NC |  |  |  | VSCOPI | VSCOPI | VSCOPI | NC | 
3 | CC(C)c1ccc2c(c1)OCC(=O)CO2 [CALONE, 7-ISOPROPYL-2H,4H-1,5-BENZODIOXEPIN-3-ONE] |  | SCOYE | NC | CO | NC |  | CO | CO | COPI | VCOBR | COPI | VCOBR |  | CO | CO |  |  |  |  | Coloration of antiperspirant spray [1, 4]: COYE; Coloration of antiperspirant spray [1, 5]: COYE; Coloration of antiperspirant spray ([1]; AP SPRAY, 3° C.): COYE; Coloration of deodorant roll-on ([1]; DEO ROLL-ON, 45° C.): DECO
4 | CC(C)=CCCC(C)CCO (racemic) [(+−)-3,7-DIMETHYL-6-OCTEN-1-OL] | NC | NC | NC | NC | NC | NC | NC | NC | SCOYE | NC | NC | NC |  | NC | NC | VSCOYE | VSCOYE | DECO | DECO | Coloration of antiperspirant spray [2, 4]: SCOYE; Coloration of antiperspirant spray [2, 5]: SCOYE
5 | C=C(CC)CCCC(C)(C)O [2-METHYL-6-METHYLIDENEOCTAN-2-OL] |  |  | NC | NC | NC | NC |  |  | SCOYE | NC | NC | NC |  |  |  |  |  |  |  | 
6 | c1ccc2[nH]ccc2c1 [2,3-BENZOPYRROLE] |  |  | NC |  | NC | NC |  |  | NC | NC | NC | SCOYE |  |  |  | COPI | VSCOYE | DECO | VSCOYE | Coloration of deodorant roll-on ([3]; DEO ROLL-ON + Haloscent D 0.5 wt %, 45° C., after 15 days): VSCOYE

Now from value to compound, other results behind:

Row | Coloration of antiperspirant spray ([2]; AP SPRAY, 3° C.) | Coloration of antiperspirant spray ([2]; AP SPRAY, 45° C.) | Coloration of deodorant roll-on [2, 6] | Coloration of deodorant roll-on [2, 7] | Coloration of deodorant roll-on ([2]; DEO ROLL-ON, 3° C.) | Coloration of deodorant roll-on ([2]; DEO ROLL-ON, 45° C.) | Coloration of deodorant spray ([2]; DEO SPRAY, 3° C.) | Coloration of deodorant spray ([2]; DEO SPRAY, 45° C.) | Coloration of deodorant stick [2, 8] | Coloration of deodorant stick [2, 9] | Coloration of deodorant stick ([2]; DEO STICK, 3° C.) | Coloration of deodorant stick ([2]; DEO STICK, 45° C.) | Coloration of deodorant roll-on [1, 7] | Coloration of deodorant spray [2, 10] | Coloration of deodorant spray [2, 11] | Coloration of antiperspirant stick [3, 12] | Coloration of antiperspirant stick [3, 13] | Coloration of antiperspirant stick ([3]; AP Stick, 3° C.) | Coloration of antiperspirant stick ([3]; AP Stick, 45° C.) | Compound | also measured
7 | NC | NC | WH | CL | VCL | VCL | NC | NC | NC | NC | NC | NC |  |  |  |  |  |  |  | O=C1CC/C=C\CCCCCCCCCC1 [EXALTENONE, (Z)-4-CYCLOPENTADECEN-1-ONE] | Coloration of deodorant spray ([1]; 3° C.): COYE; Coloration of deodorant spray ([1]; 45° C.): COYE; Coloration of antiperspirant spray [2, 4]: NC; Coloration of antiperspirant spray [2, 5]: NC
8 | NC | NC | WH |  | VCL | SCOYE | NC | NC | NC | NC | NC | NC | COYE | NC | NC |  |  |  |  | (+−)-(4E)-3-METHYL-4-CYCLOPENTADECEN-1-ONE (A) + (+−)-(5E)-3-METHYL-5-CYCLOPENTADECEN-1-ONE (B) + (+−)-(5Z)-3-METHYL-5-CYCLOPENTADECEN-1-ONE (C) [MUSCENONE DELTA] | Coloration of antiperspirant spray [1, 4]: COYE; Coloration of antiperspirant spray [1, 5]: COYE
9 |  |  | VCL |  | VCL | NC |  |  | NC | NC | NC | NC | COYE |  |  |  |  |  |  | CCC(=O)OCC(=O)O[C@@H](C)[C@@H]1CCCC(C)(C)C1 [ROMANDOLIDE, 2-{(1S)-1-[(1R)-3,3-dimethylcyclohexyl]ethoxy}-2-oxoethyl propionate] | 
10 |  |  | WH |  | VCL | NC |  |  | NC | VCOYE | NC | VCOYE | COYE |  |  |  |  |  |  | (+−)-(3E)-3-methyl-4-(2,6,6-trimethyl-2-cyclohexen-1-yl)-3-buten-2-one (A) + (+−)-(1E)-1-(2,6,6-trimethyl-2-cyclohexen-1-yl)-1-penten-3-one (B) [ISORALDEINE 70P] | 
